# Measured values: PubChem BioAssay AID1845199 (Molecular Pharmacology Branch, DTP, NCI, 2023)
# pIC50: −log10 of the molar value. Several values for one entry are separate records, joined by “and”; a condition that tells them apart may be missing. Equal entries are not always repeated.
# Tested on: 556581-035-R-J1 tumor spheroid viability, % test/control
# Experiment: Anticancer human tumor 556581-035-R-J1 patient-derived ovarian carcinoma cell line growth inhibition
# Details: spheroids with HUVEC and MSC; for viability, T/C: stronger effect = lower value
# Excerpt: Multicellular complex tumor spheroid response to DNA repair inhibitors in combination with DNA-damaging drugs
# This study explores the anticancer activities of DNA-damaging drugs and inhibitors of DNA damage repair, both as single agents and in combinations. Complex tumor spheroids comprised of malignant cells, endothelial cells and mesenchymal stem cells served as an in vitro model for human solid tumors. This model system incorporates physiologically relevant features and patient-derived or established malignant cell lines with clinically relevant genetic alterations from many tumor types. Twenty-six patient-derived or established malignant cell lines were evaluated representing sarcoma, melanoma, small cell lung cancer (SCLC), non-small cell lung cancer (NSCLC), as well as bladder, ovarian and pancreatic cancers. The concentration ranges selected for each drug and investigational agent were based upon clinically achievable concentrations if the clinical Cmax of the agent was known.
# Compounds. The drugs and compounds olaparib (NSC753686), talazoparib (NSC767125), berzosertib (NSC777718), elimusertib (NSC800525), nedisertib (NSC802822), VX-984 (NSC792969), AZD-1390 (NSC803789), temozolomide (NSC362856), topotecan (NSC609699), trabectedin (NSC813783), staurosporine (NSC755774), and gemcitabine (NSC613327) were obtained from the National Cancer Institute (NCI) Developmental Therapeutics Program Chemical Repository. The FDA-approved anticancer drug set is available from the Developmental Therapeutics Program at https://dtp.cancer.gov/organization/dscb/obtaining/available_plates.htm. […] The stock solutions were prepared in dimethyl sulfoxide (DMSO, Sigma-Aldrich, St. Louis, MO, cat. D2650) at 400-fold the tested concentration and stored at -70 degrees C. Prior to their use, the stock solutions were diluted in fresh medium and the final DMSO concentration in the assay was 0.25% (v/v). All drugs and investigational agents were tested over a range starting from a high concentration at or near the clinical Cmax and decreasing in half-log increments. If the clinical Cmax for an agent had not been determined, the highest concentration tested was 10 microM.
# Cell Lines. The patient-derived cancer cell (PDC) lines: 156681-154-R-J1-PDC, 283228-195-R-J1-PDC, 287954-098-R-J1-PDC, 292921-168-R-J2-PDC, 349418-098-R-PDC, 425362-245-T-J1-PDC, 556581-035-R-J1-PDC, and BL0293-F563-PDC were received from the NCI Patient-Derived Models Repository (PDMR, https://pdmr.cancer.gov). The established cell lines HS-SY-2 (RRID:CVCL_8719), MPNST, and SYO-1 (RRID:CVCL_7146) were obtained from the Sloan Kettering Institute. The alveolar soft parts sarcoma cell line ASPS-1 (RRID:CVCL_S738) was established at the NCI and grown from internal seed stocks. The following established cell lines were purchased from the American Type Culture Collection (ATCC, Manassas, VA): G-401 (ATCC, cat. CRL-1441, RRID:CVCL_0270), SW982 (ATCC, cat. HTB-93, RRID:CVCL_1734), VA-ES-BJ (ATCC, cat. CRL-2138, RRID:CVCL_1785), NCI-H719 (ATCC, cat. CRL-5837, RRID:CVCL_1582), NCI-H196 (ATCC, cat. CRL-5823, RRID:CVCL_1509), NCI-H841 (ATCC, cat. CRL-5845, RRID:CVCL_1595), NCI-H1618 (ATCC, cat. CRL-5879, RRID:CVCL_1480), NCI-H1876 (ATCC, cat. CRL-5902, RRID:CVCL_1503), DMS 114 (ATCC, cat. CRL-2066; RRID:CVCL_1174), NCI-H211 (ATCC, cat. CRL-5824; RRID:CVCL_1529), and SW 1271 (ATCC, cat. CRL-2177, RRID:CVCL_1716). The small cell lung cancer cell line COR-L88 was purchased from Sigma-Aldrich (cat. 92031917-1VL, RRID:CVCL_1141). The non-small cell lung cancer cell lines NCI-H226 (RRID:CVCL_1544) and NCI-H322M (RRID:CVCL_1557) were established at the NCI and grown from internal seed stocks. Pooled donor human umbilical vein endothelial cells (HUVEC, Lonza, cat. CC-2519) and human mesenchymal stem cells (hMSC, Lonza, cat. PT-2501) were purchased from Lonza (Walkersville, MD).
# Cell Culture. All cells were maintained in an incubator at 37 degrees C and 5% CO2 with 95% humidity. […]
# 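Further: spheroids exposed to compounds for 7 days before viability read.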
compound,measurement,setting,value
COc1cc(C)[nH]c(=O)c1CN1CCc2c(Cl)cc(C(OC)C3COC3)c(Cl)c2C1=O (stereo unspecified),"viability, T/C",compound 0.0316 µM,103% and 105% and 98.8%
same,"viability, T/C",compound 0.1 µM,110% and 101% and 105%
same,"viability, T/C",compound 0.316 µM,107% (2×) and 99.8%
same,"viability, T/C",compound 1 µM,111% and 108% and 102%
same,"viability, T/C",compound 3.16 µM,114% and 107% and 96.9%
same,"viability, T/C",compound 10 µM,106% and 99.4% and 98.3%
same,pIC50,curve of compound,< 5.00
CNCc1ccc(-c2cc(-c3nc(-c4ccc(S(=O)(=O)C(C)C)cc4)cnc3N)on2)cc1 + COc1cc2c(cc1O)CCNC21CSC2c3c(OC(C)=O)c(C)c4c(c3C(COC1=O)N1C(O)C3Cc5cc(C)c(OC)c(O)c5C(C21)N3C)OCO4,pIC50,"curve of first compound, second compound 30 pM",5.79
same,pIC50,"curve of first compound, second compound 94.9 pM",5.91
same,pIC50,"curve of first compound, second compound 0.0003 µM",6.14
same,pIC50,"curve of first compound, second compound 0.000949 µM",> 8.02
same,pIC50,"curve of first compound, second compound 0.003 µM",> 8.02
same,"viability, T/C","second compound 30 pM, first compound 0.00949 µM",99.4%
same,"viability, T/C","second compound 30 pM, first compound 0.03 µM",108%
same,"viability, T/C","second compound 30 pM, first compound 0.0949 µM",108%
same,"viability, T/C","second compound 30 pM, first compound 0.3 µM",108%
same,"viability, T/C","second compound 30 pM, first compound 0.949 µM",69.4%
same,"viability, T/C","second compound 30 pM, first compound 3 µM",27.1%
same,"viability, T/C","second compound 94.9 pM, first compound 0.00949 µM",105%
same,"viability, T/C","second compound 94.9 pM, first compound 0.03 µM",102%
same,"viability, T/C","second compound 94.9 pM, first compound 0.0949 µM",105%
same,"viability, T/C","second compound 94.9 pM, first compound 0.3 µM",96.1%
same,"viability, T/C","second compound 94.9 pM, first compound 0.949 µM",61%
same,"viability, T/C","second compound 94.9 pM, first compound 3 µM",13.6%
same,"viability, T/C","second compound 0.0003 µM, first compound 0.00949 µM",94.4%
same,"viability, T/C","second compound 0.0003 µM, first compound 0.03 µM",97.1%
same,"viability, T/C","second compound 0.0003 µM, first compound 0.0949 µM",107%
same,"viability, T/C","second compound 0.0003 µM, first compound 0.3 µM",94.3%
same,"viability, T/C","second compound 0.0003 µM, first compound 0.949 µM",36.5%
same,"viability, T/C","second compound 0.0003 µM, first compound 3 µM",11%
same,"viability, T/C","second compound 0.000949 µM, first compound 0.00949 µM",28.1%
same,"viability, T/C","second compound 0.000949 µM, first compound 0.03 µM",38.3%
same,"viability, T/C","second compound 0.000949 µM, first compound 0.0949 µM",25.6%
same,"viability, T/C","second compound 0.000949 µM, first compound 0.3 µM",9.62%
same,"viability, T/C","second compound 0.000949 µM, first compound 0.949 µM",2.92%
same,"viability, T/C","second compound 0.000949 µM, first compound 3 µM",0.33%
same,"viability, T/C","second compound 0.003 µM, first compound 0.00949 µM",0.74%
same,"viability, T/C","second compound 0.003 µM, first compound 0.03 µM",0.64%
same,"viability, T/C","second compound 0.003 µM, first compound 0.0949 µM",0.49%
same,"viability, T/C","second compound 0.003 µM, first compound 0.3 µM",0.47%
same,"viability, T/C","second compound 0.003 µM, first compound 0.949 µM",0.42%
same,"viability, T/C","second compound 0.003 µM, first compound 3 µM",0.33%
Cc1cc(C)c(CNC(=O)c2cc(-c3ccc(CN4CCOCC4)cc3)cc3c2cnn3C2CCCC2)c(=O)[nH]1,"viability, T/C",compound 0.0316 µM,103% and 104% and 86.6%
same,"viability, T/C",compound 0.1 µM,108% and 103% and 97.3%
same,"viability, T/C",compound 0.316 µM,112% and 108% and 97.3%
same,"viability, T/C",compound 1 µM,115% and 102% and 120%
same,"viability, T/C",compound 3.16 µM,104% and 105% and 107%
same,"viability, T/C",compound 10 µM,89.3% (2×) and 93.4%
same,pIC50,curve of compound,< 5.00
O=C(c1cc(Cc2n[nH]c(=O)c3ccccc23)ccc1F)N1CCN(C(=O)C2CC2)CC1,"viability, T/C",compound 0.0949 µM,100% and 105% and 95.8%
same,"viability, T/C",compound 0.3 µM,97.9% and 107% and 110%
same,"viability, T/C",compound 0.949 µM,98.4% and 102% and 100%
same,"viability, T/C",compound 3 µM,90% and 103% and 96.5%
same,"viability, T/C",compound 9.49 µM,75.5% and 90.5% and 81.3%
same,"viability, T/C",compound 30 µM,64.7% and 72.9% and 67.7%
same,pIC50,curve of compound,< 4.52
